Measured values reported in PubChem BioAssay (NCI).
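Each compound was tested at five concentrations against cells in 96-well plates for 48 hours. GI50 marks 50% less growth. The concentration for full growth arrest is given as TGI.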

Assays:
Assay in all cases: NCI tumour cell line growth inhibition, 48 h
[1] = tested on: HCT-116 colon
[2] = tested on: A549 NSCLC
[3] = tested on: UO-31 renal
[4] = tested on: RXF 393 renal
[5] = tested on: HOP-92 NSCLC
[6] = tested on: T-47D breast
[7] = tested on: HT29 colon
[8] = tested on: LOX IMVI melanoma
[9] = tested on: UACC-257 melanoma
[10] = tested on: HCT-15 colon
[11] = tested on: MALME-3M melanoma
[12] = tested on: NCI/ADR-RES ovarian
[13] = tested on: EKVX NSCLC
[14] = tested on: KM12 colon
[15] = tested on: NCI-H460 lung
[16] = tested on: HL-60(TB) leukemia
[17] = tested on: SW-620 colon
[18] = tested on: OVCAR-5 ovarian
[19] = tested on: MOLT-4 leukemia
[20] = tested on: A498 renal
[21] = tested on: BT-549 breast
[22] = tested on: 786-0 renal
[23] = tested on: SR leukemia
[24] = tested on: M14 melanoma
[25] = tested on: NCI-H23 lung
[26] = tested on: SK-MEL-5 melanoma
[27] = tested on: HCC-2998 colon
[28] = tested on: SK-MEL-28 melanoma
[29] = tested on: SK-OV-3 ovarian
[30] = tested on: TK-10 renal
[31] = tested on: SF-295 CNS
[32] = tested on: HOP-62 NSCLC
[33] = tested on: OVCAR-3 ovarian
[34] = tested on: PC-3 prostate
[35] = tested on: DU-145 prostate
[36] = tested on: UACC-62 melanoma
[37] = tested on: MDA-MB-231 breast
[38] = tested on: CCRF-CEM leukemia
[39] = tested on: OVCAR-8 ovarian
[40] = tested on: OVCAR-4 ovarian
[41] = tested on: SN12C renal
[42] = tested on: SF-539 CNS
[43] = tested on: MCF7 breast
[44] = tested on: MDA-MB-435
[45] = tested on: SNB-19 CNS
[46] = tested on: ACHN renal
[47] = tested on: NCI-H522 lung
[48] = tested on: SK-MEL-2 melanoma
[49] = tested on: HS 578T breast
[50] = tested on: NCI-H226 lung
[51] = tested on: SNB-75 CNS
[52] = tested on: SF-268 CNS
[53] = tested on: IGROV1 ovarian
[54] = tested on: U251 CNS

O=C(NCCNC(=O)c1ccc(F)cc1)Nc1ccc(-n2cc(-c3ccncc3)c(-c3ccc(Cl)c(O)c3)n2)cc1
GI50 [1]: 338 nM
TGI [1]: 1560 nM
GI50 [2]: 1750 nM
TGI [2]: 9380 nM
GI50 [3]: 2400 nM
TGI [3]: > 100000 nM
GI50 [4]: 288 nM
TGI [4]: 3690 nM
GI50 [5]: 465 nM
TGI [5]: 5230 nM
GI50 [6]: 884 nM
TGI [6]: 16000 nM
GI50 [7]: 377 nM
TGI [7]: 1410 nM
GI50 [8]: 425 nM
TGI [8]: 2490 nM
GI50 [9]: 1370 nM
TGI [9]: 5890 nM
GI50 [10]: 2120 nM
TGI [10]: 7000 nM
GI50 [11]: 714 nM
TGI [11]: 2430 nM
GI50 [12]: > 100000 nM
TGI [12]: > 100000 nM
GI50 [13]: 1360 nM
TGI [13]: > 100000 nM
GI50 [14]: 433 nM
TGI [14]: 2280 nM
GI50 [15]: 329 nM
TGI [15]: 10500 nM
GI50 [16]: 273 nM
TGI [16]: 848 nM
GI50 [17]: 430 nM
TGI [17]: > 100000 nM
GI50 [18]: 1030 nM
TGI [18]: 9820 nM
GI50 [19]: 356 nM
TGI [19]: 3540 nM
GI50 [20]: 336 nM
TGI [20]: 2830 nM
GI50 [21]: 338 nM
TGI [21]: 2910 nM
GI50 [22]: 997 nM
TGI [22]: 5770 nM
GI50 [23]: 299 nM
TGI [23]: 2620 nM
GI50 [24]: 288 nM
TGI [24]: 1250 nM
GI50 [25]: 587 nM
TGI [25]: 7770 nM
GI50 [26]: 280 nM
TGI [26]: 1120 nM
GI50 [27]: 597 nM
TGI [27]: 2850 nM
GI50 [28]: 1380 nM
TGI [28]: > 100000 nM
GI50 [29]: 746 nM
TGI [29]: 48500 nM
GI50 [30]: 2490 nM
GI50 [31]: 354 nM
TGI [31]: 1700 nM
GI50 [32]: 697 nM
TGI [32]: 23100 nM
GI50 [33]: 326 nM
TGI [33]: 1200 nM
GI50 [34]: 390 nM
TGI [34]: 8210 nM
GI50 [35]: 411 nM
TGI [35]: > 100000 nM
GI50 [36]: 555 nM
TGI [36]: 2320 nM
GI50 [37]: 438 nM
TGI [37]: 2260 nM
GI50 [38]: 336 nM
TGI [38]: > 100000 nM
GI50 [39]: 491 nM
TGI [39]: > 100000 nM
GI50 [40]: 585 nM
TGI [40]: > 100000 nM
GI50 [41]: 509 nM
TGI [41]: > 100000 nM
GI50 [42]: 253 nM
TGI [42]: 957 nM
GI50 [43]: 323 nM
TGI [43]: > 100000 nM
GI50 [44]: 189 nM
TGI [44]: 577 nM
GI50 [45]: 730 nM
TGI [45]: > 100000 nM
GI50 [46]: 2320 nM
TGI [46]: 9640 nM
GI50 [47]: 306 nM
TGI [47]: 2940 nM
GI50 [48]: 738 nM
TGI [48]: 4000 nM
GI50 [49]: 462 nM
TGI [49]: > 100000 nM
GI50 [50]: 809 nM
TGI [50]: 6480 nM
GI50 [51]: 3050 nM
TGI [51]: > 100000 nM
GI50 [52]: 427 nM
TGI [52]: 7330 nM
GI50 [53]: 659 nM
TGI [53]: > 100000 nM
GI50 [54]: 391 nM
TGI [54]: 2640 nM
